# Test results: PubChem BioAssay (NCI)
#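 GI50 marks 50% less growth. Definition used: TGI = concentration required for complete inhibition of growth.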
# How the values were obtained:
# Experiment in all cases: NCI tumour cell line growth inhibition, 384-well format
# [1] = tested on: UO-31 renal
# [2] = tested on: SNB-75 CNS
# [3] = tested on: OVCAR-8 ovarian
# [4] = tested on: MALME-3M melanoma
# [5] = tested on: SK-MEL-28 melanoma
# [6] = tested on: HCT-15 colon
# [7] = tested on: UACC-62 melanoma
# [8] = tested on: HL-60(TB) leukemia
# [9] = tested on: SNB-19 CNS
# [10] = tested on: DU-145 prostate
# [11] = tested on: NCI-H23 lung
# [12] = tested on: OVCAR-3 ovarian
# [13] = tested on: HOP-62 NSCLC
# [14] = tested on: MOLT-4 leukemia
# [15] = tested on: PC-3 prostate
# [16] = tested on: EKVX NSCLC
# [17] = tested on: CAKI-1 renal
# [18] = tested on: MDA-MB-435 melanoma
# [19] = tested on: SK-MEL-5 melanoma
# [20] = tested on: NCI/ADR-RES ovarian
# [21] = tested on: A549 NSCLC
# [22] = tested on: TK-10 renal
# [23] = tested on: SK-OV-3 ovarian
# [24] = tested on: ACHN renal
# [25] = tested on: HS 578T breast
# [26] = tested on: CCRF-CEM leukemia
# [27] = tested on: 786-0 renal
compound,measurement,setting,value
COc1cc(S(C)(=O)=O)ccc1Nc1nc2ccc(-c3ccc(NC(=O)[C@H](C)c4ccc(F)cc4)cc3)cn2n1,GI50,[1],22.4 µM
same,TGI,[1],> 100 µM
same,GI50,[2],75.9 µM
same,TGI,[2],> 100 µM
same,GI50,[3],1.19 µM
same,TGI,[3],> 100 µM
same,GI50,[4],58.2 µM
same,TGI,[4],> 100 µM
same,GI50,[5],> 100 µM
same,TGI,[5],> 100 µM
same,GI50,[6],0.0587 µM
same,TGI,[6],> 100 µM
same,GI50,[7],> 100 µM
same,TGI,[7],> 100 µM
same,GI50,[8],0.0454 µM
same,TGI,[8],> 100 µM
same,GI50,[9],> 100 µM
same,TGI,[9],> 100 µM
same,GI50,[10],5.41 µM
same,TGI,[10],> 100 µM
same,GI50,[11],> 100 µM
same,TGI,[11],> 100 µM
same,GI50,[12],> 100 µM
same,TGI,[12],> 100 µM
same,GI50,[13],0.0771 µM
same,TGI,[13],> 100 µM
same,GI50,[14],0.0201 µM
same,TGI,[14],0.0417 µM
same,GI50,[15],69 µM
same,TGI,[15],> 100 µM
same,GI50,[16],> 100 µM
same,TGI,[16],> 100 µM
same,GI50,[17],> 100 µM
same,TGI,[17],> 100 µM
same,GI50,[18],> 100 µM
same,TGI,[18],> 100 µM
same,GI50,[19],1.54 µM
same,TGI,[19],> 100 µM
same,GI50,[20],1.4 µM
same,TGI,[20],> 100 µM
same,GI50,[21],0.0517 µM
same,TGI,[21],> 100 µM
same,GI50,[22],> 100 µM
same,TGI,[22],> 100 µM
same,GI50,[23],> 100 µM
same,TGI,[23],> 100 µM
same,GI50,[24],> 100 µM
same,TGI,[24],> 100 µM
same,GI50,[25],17.4 µM
same,TGI,[25],> 100 µM
same,GI50,[26],0.0293 µM
same,TGI,[26],0.0694 µM
same,GI50,[27],1.73 µM
